{"source": "paper PMC10046369", "about": "“Low-Affinity/High-Selectivity Dopamine Transport Inhibition Sufficient to Rescue Cognitive Functions in the Aging Rat” (Biomolecules, 2023)", "experiment_in_all_cases": "cell-based", "set-up_in_all_cases": "Eurofins Cerep functional GPCR screen, antagonist mode, inhibition of control agonist response", "conditions_in_all_cases": "read-out: % Inhibition of Control Agonist Response, Mean", "key": {"[1]": {"molecular_target": "T1, BLT1 (LTB4) (Homo sapiens, UniProt Q15722)", "T1 construct": "gene LTB4R"}, "[2]": {"molecular_target": "T2, α1B (Homo sapiens, UniProt P35368)", "T2 construct": "gene ADRA1B", "T2 sequence (P35368 whole entry)": "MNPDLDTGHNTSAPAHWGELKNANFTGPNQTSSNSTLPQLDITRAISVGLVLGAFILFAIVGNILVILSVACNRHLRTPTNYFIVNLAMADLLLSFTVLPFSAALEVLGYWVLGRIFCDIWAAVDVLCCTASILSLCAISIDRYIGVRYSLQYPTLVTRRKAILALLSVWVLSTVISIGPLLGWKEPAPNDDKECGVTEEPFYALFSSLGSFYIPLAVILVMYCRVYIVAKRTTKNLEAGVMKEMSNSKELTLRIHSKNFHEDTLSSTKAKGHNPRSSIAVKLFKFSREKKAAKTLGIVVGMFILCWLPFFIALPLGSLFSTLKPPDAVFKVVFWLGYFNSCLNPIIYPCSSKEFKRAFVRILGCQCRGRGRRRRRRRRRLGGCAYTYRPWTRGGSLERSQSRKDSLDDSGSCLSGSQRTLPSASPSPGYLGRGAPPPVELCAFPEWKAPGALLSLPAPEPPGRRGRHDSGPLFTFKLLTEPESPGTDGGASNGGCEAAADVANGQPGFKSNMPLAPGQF"}, "[3]": {"molecular_target": "T3, CysLT1 (LTD4) (Homo sapiens, UniProt Q9Y271)", "T3 construct": "gene CYSLTR1", "T3 sequence (Q9Y271 whole entry)": "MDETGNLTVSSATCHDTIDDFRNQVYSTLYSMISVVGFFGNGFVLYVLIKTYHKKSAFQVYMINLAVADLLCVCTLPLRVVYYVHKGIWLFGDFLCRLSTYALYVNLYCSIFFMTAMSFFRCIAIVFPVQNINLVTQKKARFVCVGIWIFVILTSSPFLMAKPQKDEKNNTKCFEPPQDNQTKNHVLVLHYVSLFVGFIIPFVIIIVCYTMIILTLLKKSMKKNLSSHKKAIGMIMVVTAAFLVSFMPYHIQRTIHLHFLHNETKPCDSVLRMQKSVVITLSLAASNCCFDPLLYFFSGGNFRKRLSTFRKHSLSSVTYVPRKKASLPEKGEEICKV"}, "[4]": {"molecular_target": "T4, D2S (Homo sapiens, UniProt P14416)", "T4 construct": "gene DRD2; D2S short isoform"}, "[5]": {"molecular_target": "CCR1 (Homo sapiens, UniProt P32246)"}, "[6]": {"molecular_target": "T5, H3 (Homo sapiens, UniProt Q9Y5N1)", "T5 construct": "gene HRH3"}, "[7]": {"molecular_target": "CXCR2 (Homo sapiens, UniProt P25025)", "sequence (P25025 whole entry)": "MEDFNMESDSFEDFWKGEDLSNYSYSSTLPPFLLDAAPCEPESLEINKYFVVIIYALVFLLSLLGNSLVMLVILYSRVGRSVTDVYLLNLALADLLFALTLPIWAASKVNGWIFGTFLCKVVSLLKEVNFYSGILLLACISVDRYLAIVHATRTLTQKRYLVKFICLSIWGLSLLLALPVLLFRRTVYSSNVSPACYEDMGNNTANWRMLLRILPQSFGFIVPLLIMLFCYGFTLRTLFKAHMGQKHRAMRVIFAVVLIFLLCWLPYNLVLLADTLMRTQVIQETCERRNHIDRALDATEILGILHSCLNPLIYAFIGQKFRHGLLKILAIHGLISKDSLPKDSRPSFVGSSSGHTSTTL"}, "[8]": {"molecular_target": "T6, ETA (Homo sapiens, UniProt P25101)", "T6 construct": "gene EDNRA"}, "[9]": {"molecular_target": "T7, β3 (Homo sapiens, UniProt P13945)", "T7 construct": "gene ADRB3", "T7 sequence (P13945 whole entry)": "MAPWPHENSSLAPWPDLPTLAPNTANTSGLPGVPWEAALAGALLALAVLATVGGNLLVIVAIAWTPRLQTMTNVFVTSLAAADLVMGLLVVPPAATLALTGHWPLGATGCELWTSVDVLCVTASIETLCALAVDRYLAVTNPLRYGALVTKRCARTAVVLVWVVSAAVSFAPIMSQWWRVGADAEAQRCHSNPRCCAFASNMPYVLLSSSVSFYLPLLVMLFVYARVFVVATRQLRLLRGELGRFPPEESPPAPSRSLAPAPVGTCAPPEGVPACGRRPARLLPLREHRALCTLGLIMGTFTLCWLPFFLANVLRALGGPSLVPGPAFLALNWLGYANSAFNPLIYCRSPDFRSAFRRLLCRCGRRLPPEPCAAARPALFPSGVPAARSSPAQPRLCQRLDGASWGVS"}, "[10]": {"molecular_target": "T8, CaS (Homo sapiens, UniProt P41180)", "T8 construct": "gene CASR", "T8 sequence (P41180 whole entry)": "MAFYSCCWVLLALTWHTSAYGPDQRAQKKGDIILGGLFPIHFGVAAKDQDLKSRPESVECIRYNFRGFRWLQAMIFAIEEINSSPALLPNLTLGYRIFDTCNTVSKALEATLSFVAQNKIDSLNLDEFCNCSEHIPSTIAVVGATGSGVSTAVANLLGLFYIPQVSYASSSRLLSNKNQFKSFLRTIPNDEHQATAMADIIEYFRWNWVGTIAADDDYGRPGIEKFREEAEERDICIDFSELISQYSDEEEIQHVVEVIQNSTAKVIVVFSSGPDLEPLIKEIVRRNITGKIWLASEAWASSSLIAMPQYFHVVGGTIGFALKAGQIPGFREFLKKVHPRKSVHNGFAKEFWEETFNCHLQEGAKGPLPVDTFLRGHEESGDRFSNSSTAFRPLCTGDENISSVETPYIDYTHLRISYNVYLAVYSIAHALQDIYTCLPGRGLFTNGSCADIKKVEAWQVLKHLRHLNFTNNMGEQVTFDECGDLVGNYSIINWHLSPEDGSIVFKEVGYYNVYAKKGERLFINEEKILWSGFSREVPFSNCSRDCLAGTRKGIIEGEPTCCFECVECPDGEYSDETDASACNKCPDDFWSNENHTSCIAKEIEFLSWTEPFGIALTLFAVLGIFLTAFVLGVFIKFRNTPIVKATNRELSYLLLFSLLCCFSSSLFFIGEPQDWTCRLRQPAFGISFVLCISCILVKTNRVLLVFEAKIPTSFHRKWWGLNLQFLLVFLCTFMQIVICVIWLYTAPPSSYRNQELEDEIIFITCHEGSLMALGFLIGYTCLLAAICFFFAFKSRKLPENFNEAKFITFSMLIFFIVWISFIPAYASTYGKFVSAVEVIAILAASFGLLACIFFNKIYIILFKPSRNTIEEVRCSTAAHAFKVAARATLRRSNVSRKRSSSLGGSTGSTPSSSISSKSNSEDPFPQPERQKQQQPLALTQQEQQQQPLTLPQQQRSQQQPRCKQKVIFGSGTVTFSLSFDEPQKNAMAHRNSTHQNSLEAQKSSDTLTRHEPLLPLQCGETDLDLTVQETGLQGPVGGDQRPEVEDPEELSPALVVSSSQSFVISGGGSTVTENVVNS"}, "[11]": {"molecular_target": "T9, FFA1 (Homo sapiens, UniProt O14842)", "T9 construct": "gene FFAR1", "T9 sequence (O14842 whole entry)": "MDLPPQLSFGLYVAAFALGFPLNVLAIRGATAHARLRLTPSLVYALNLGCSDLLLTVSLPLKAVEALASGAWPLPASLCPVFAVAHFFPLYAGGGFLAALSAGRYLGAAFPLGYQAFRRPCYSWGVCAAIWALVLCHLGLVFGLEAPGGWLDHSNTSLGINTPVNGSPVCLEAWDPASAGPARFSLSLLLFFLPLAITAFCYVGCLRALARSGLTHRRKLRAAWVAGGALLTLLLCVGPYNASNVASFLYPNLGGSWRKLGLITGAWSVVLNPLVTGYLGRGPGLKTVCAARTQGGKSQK"}, "[12]": {"molecular_target": "T10, H1 (Homo sapiens, UniProt P35367)", "T10 construct": "gene HRH1"}, "[13]": {"molecular_target": "T11, A1 (Homo sapiens, UniProt P30542)", "T11 construct": "gene ADORA1", "T11 sequence (P30542 whole entry)": "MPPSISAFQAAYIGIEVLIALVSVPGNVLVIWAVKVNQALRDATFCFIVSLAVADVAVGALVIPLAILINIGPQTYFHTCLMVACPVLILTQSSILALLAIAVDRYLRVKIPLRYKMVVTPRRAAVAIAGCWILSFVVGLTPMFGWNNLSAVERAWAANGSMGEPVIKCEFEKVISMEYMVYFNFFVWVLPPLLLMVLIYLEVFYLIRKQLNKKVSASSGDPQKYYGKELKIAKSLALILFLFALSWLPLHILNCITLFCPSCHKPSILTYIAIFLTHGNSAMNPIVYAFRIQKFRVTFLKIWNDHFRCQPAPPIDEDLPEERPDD"}, "[14]": {"molecular_target": "T12, B2 (Homo sapiens, UniProt P30411)", "T12 construct": "gene BDKRB2"}, "[15]": {"molecular_target": "T13, H4 (Homo sapiens, UniProt Q9H3N8)", "T13 construct": "gene HRH4"}, "[16]": {"molecular_target": "T14, CT (Calcitonin) (Homo sapiens, UniProt P30988)", "T14 construct": "gene CALCR"}, "[17]": {"molecular_target": "T15, A2B (Homo sapiens, UniProt P29275)", "T15 construct": "gene ADORA2B", "T15 sequence (P29275 whole entry)": "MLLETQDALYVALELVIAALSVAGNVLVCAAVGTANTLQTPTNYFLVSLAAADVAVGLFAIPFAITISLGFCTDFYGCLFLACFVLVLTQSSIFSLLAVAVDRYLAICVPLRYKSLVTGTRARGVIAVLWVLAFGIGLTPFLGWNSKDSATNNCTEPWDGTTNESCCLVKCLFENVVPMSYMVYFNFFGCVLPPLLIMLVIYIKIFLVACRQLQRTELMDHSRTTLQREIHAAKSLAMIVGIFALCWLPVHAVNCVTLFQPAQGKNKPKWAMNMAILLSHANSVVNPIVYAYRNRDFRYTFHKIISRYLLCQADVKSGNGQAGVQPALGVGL"}, "[18]": {"molecular_target": "T16, GPR109A (Homo sapiens, UniProt Q8TDS4)", "T16 construct": "gene HCAR2"}, "[19]": {"molecular_target": "T17, BB1 (Homo sapiens, UniProt P28336)", "T17 construct": "gene NMBR", "T17 sequence (P28336 whole entry)": "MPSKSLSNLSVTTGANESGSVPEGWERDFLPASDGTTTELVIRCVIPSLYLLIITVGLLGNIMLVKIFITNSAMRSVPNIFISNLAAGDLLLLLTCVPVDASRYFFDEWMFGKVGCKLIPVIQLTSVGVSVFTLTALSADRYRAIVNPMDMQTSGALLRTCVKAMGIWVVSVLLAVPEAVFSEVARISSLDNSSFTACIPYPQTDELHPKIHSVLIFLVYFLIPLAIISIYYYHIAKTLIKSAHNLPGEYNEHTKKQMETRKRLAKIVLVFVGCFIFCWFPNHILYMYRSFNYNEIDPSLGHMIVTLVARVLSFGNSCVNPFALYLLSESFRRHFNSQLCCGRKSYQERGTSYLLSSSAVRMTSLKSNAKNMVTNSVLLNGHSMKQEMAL"}, "[20]": {"molecular_target": "T18, GHRH (Homo sapiens, UniProt Q02643)", "T18 construct": "gene GHRHR"}, "[21]": {"molecular_target": "T19, BB3 (Homo sapiens, UniProt P32247)", "T19 construct": "gene BRS3", "T19 sequence (P32247 whole entry)": "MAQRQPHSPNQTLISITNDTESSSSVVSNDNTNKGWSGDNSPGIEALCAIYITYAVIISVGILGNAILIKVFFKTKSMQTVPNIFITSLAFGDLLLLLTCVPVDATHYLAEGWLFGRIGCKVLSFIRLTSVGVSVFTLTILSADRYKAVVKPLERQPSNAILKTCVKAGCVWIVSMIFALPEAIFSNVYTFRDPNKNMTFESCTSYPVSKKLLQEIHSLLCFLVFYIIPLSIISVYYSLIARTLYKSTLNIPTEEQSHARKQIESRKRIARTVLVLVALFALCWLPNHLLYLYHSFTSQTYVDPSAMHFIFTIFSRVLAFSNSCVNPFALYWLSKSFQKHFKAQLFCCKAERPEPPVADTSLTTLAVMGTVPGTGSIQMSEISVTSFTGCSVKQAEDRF"}, "[22]": {"molecular_target": "T20, ETB (Homo sapiens, UniProt P24530)", "T20 construct": "gene EDNRB"}, "[23]": {"molecular_target": "T21, secretin (Homo sapiens, UniProt P47872)", "T21 construct": "gene SCTR", "T21 sequence (P47872 whole entry)": "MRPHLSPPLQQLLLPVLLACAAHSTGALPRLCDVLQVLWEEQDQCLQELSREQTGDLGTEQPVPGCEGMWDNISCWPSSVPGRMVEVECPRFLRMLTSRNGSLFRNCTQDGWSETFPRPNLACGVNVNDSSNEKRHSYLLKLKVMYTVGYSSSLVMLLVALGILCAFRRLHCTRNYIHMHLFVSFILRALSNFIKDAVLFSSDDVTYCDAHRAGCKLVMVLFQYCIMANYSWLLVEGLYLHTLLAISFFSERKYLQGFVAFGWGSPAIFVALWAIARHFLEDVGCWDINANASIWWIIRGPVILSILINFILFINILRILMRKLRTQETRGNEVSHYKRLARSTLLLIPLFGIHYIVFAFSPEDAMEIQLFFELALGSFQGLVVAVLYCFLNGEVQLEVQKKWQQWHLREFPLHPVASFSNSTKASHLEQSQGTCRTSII"}, "[24]": {"molecular_target": "T22, A3 (Homo sapiens, UniProt P0DMS8)", "T22 construct": "gene ADORA3"}, "[25]": {"molecular_target": "FPR1 (Homo sapiens, UniProt P21462)"}, "[26]": {"molecular_target": "T23, CRF1 (Homo sapiens, UniProt P34998)", "T23 construct": "gene CRHR1"}}, "data": [{"smiles": "[O-][S@@+](Cc1cncs1)C(c1ccccc1)c1ccccc1", "note": "[S-CE-123, (S)-5-((Benzhydrylsulfinyl)Methyl)Thiazole]", "values": [{"measurement": "inhibition at 2.8 µM", "setting": "[1]", "value": -4.7, "unit": "%"}, {"measurement": "inhibition at 2.8 µM", "setting": "[2]", "value": -15.1, "unit": "%"}, {"measurement": "inhibition at 2.8 µM", "setting": "[3]", "value": -12.9, "unit": "%"}, {"measurement": "inhibition at 2.8 µM", "setting": "[4]", "value": 18.1, "unit": "%"}, {"measurement": "inhibition at 2.8 µM", "setting": "[5]", "value": -1.5, "unit": "%"}, {"measurement": "inhibition at 2.8 µM", "setting": "[6]", "value": -0.3, "unit": "%"}, {"measurement": "inhibition at 2.8 µM", "setting": "[7]", "value": 3.8, "unit": "%"}, {"measurement": "inhibition at 2.8 µM", "setting": "[8]", "value": -0.5, "unit": "%"}, {"measurement": "inhibition at 2.8 µM", "setting": "[9]", "value": 15.5, "unit": "%"}, {"measurement": "inhibition at 2.8 µM", "setting": "[10]", "value": -6.4, "unit": "%"}, {"measurement": "inhibition at 2.8 µM", "setting": "[11]", "value": -2.8, "unit": "%"}, {"measurement": "inhibition at 2.8 µM", "setting": "[12]", "value": -1.9, "unit": "%"}, {"measurement": "inhibition at 2.8 µM", "setting": "[13]", "value": 10.6, "unit": "%"}, {"measurement": "inhibition at 2.8 µM", "setting": "[14]", "value": -32.1, "unit": "%"}, {"measurement": "inhibition at 2.8 µM", "setting": "[15]", "value": 3.4, "unit": "%"}, {"measurement": "inhibition at 2.8 µM", "setting": "[16]", "value": -21.7, "unit": "%"}, {"measurement": "inhibition at 2.8 µM", "setting": "[17]", "value": -11.8, "unit": "%"}, {"measurement": "inhibition at 2.8 µM", "setting": "[18]", "value": -11.6, "unit": "%"}, {"measurement": "inhibition at 2.8 µM", "setting": "[19]", "value": -10.5, "unit": "%"}, {"measurement": "inhibition at 2.8 µM", "setting": "[20]", "value": 11.7, "unit": "%"}, {"measurement": "inhibition at 2.8 µM", "setting": "[21]", "value": 6.2, "unit": "%"}, {"measurement": "inhibition at 2.8 µM", "setting": "[22]", "value": 1.5, "unit": "%"}, {"measurement": "inhibition at 2.8 µM", "setting": "[23]", "value": 17.6, "unit": "%"}, {"measurement": "inhibition at 2.8 µM", "setting": "[24]", "value": -1.8, "unit": "%"}, {"measurement": "inhibition at 2.8 µM", "setting": "[25]", "value": 1.6, "unit": "%"}, {"measurement": "inhibition at 2.8 µM", "setting": "[26]", "value": -16.9, "unit": "%"}]}]}
